Our source for the EC50 values is publication PMC3475186 (Cell, 2012).

What is called EC50 is the concentration at which the effect is half-maximal. Read a low EC50 as greater potency.

This assay concerns the target hTPC2 (TPC2; TPCN2; hTPC2-EGFP) (Homo sapiens, UniProt Q8NHX9). Description: whole-endolysosome patch clamp. It is filed as cell-based. (In general: In patch-clamp work, channel activity is measured electrically.)

Sequence of hTPC2 (TPC2; TPCN2; hTPC2-EGFP) (Q8NHX9 whole entry): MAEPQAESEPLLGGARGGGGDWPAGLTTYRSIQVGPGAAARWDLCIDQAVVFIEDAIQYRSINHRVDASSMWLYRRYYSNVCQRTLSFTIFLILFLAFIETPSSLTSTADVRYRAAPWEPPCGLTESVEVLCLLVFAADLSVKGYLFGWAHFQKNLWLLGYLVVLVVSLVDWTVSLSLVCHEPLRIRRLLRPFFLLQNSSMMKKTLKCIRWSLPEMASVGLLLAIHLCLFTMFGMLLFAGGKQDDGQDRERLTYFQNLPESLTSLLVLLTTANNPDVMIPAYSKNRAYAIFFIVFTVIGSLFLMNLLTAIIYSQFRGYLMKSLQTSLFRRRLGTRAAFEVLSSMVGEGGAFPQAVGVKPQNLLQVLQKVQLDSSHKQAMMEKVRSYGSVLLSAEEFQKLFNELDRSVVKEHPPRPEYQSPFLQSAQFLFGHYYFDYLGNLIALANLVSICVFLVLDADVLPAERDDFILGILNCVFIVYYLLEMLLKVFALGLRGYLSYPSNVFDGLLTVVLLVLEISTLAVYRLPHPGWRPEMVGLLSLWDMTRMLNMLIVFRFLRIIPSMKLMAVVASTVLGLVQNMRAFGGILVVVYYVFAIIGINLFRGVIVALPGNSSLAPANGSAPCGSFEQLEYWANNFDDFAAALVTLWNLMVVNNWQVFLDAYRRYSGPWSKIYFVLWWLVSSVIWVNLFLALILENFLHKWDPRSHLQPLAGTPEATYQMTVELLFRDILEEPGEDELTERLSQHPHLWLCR

The molecule `CCCCCCCC(=O)OC[C@H](COP(=O)(O)O[C@@H]1[C@H](O)[C@H](OP(=O)(O)O)[C@@H](O)[C@H](OP(=O)(O)O)[C@H]1O)OC(=O)CCCCCCC` [diC8 PI(3,5)P2] gave an EC50 of 0.39 ± 0.094 µM.
